Experimental data published in ChEMBL document CHEMBL3885861, “Open TG-GATES”.

Species on record: Rattus norvegicus
Assay: Open TG-GATES - Regimen: Single
Assay type: toxicity, organism-based, Sprague-Dawley
Set-up: regimen Single, gender Male, age 6 weeks
Conditions: in vivo, po, 0 mg/kg, route gavage, dose level Control; for APTT / Bas / Eos / Fbg / Hb / Ht / Lym / MCH / MCHC / MCV / Mono / Neu / PT / Plat / RBC / Ret / WBC: tissue Blood; for KIDNEY_L / KIDNEY_R / KIDNEY_TOTAL: tissue Kidney; for LIVER: tissue Liver; for A/G / ALP / ALT / AST / BUN / CRE / Ca / Cl / DBIL / GLC / IP / K / LDH / Na / PL / RALB / TBIL / TC / TG / TP / gamma-GTP: tissue Plasma

Structure (SMILES): COc1ccc(Cl)cc1C(=O)NCCc1ccc(S(=O)(=O)NC(=O)NC2CCCCC2)cc1 [GLYBURIDE]
- TERMINAL_BW (3 h): 216 g
- APTT (3 h): 19.2 s
- Bas (3 h): 0%
- Eos (3 h): 1%
- Fbg (3 h): 221.2 mg/dL
- Hb (3 h): 13.2 g/dL
- Ht (3 h): 40.6%
- Lym (3 h): 70.4%
- MCH (3 h): 21 pg
- MCHC (3 h): 32.4%
- MCV (3 h): 64.7 fL
- Mono (3 h): 3%
- Neu (3 h): 24.4%
- PT (3 h): 12.3 s
- Plat (3 h): 125.5 x10_4/uL
- RBC (3 h): 628.8 x10_4/ul
- Ret (3 h): 8%
- WBC (3 h): 84.1 x10_2/uL
- KIDNEY_L (3 h): 1 g
- KIDNEY_R (3 h): 1 g
- KIDNEY_TOTAL (3 h): 1.9 g
- LIVER (3 h): 10.1 g
- A/G (3 h): 1.7
- ALP (3 h): 1085 IU/L
- ALT (3 h): 41.8 IU/L
- AST (3 h): 70.8 IU/L
- BUN (3 h): 11.8 mg/dL
- CRE (3 h): 0.4 mg/dL
- Ca (3 h): 11 mg/dL
- Cl (3 h): 104 meq/L
- DBIL (3 h): 0.2 mg/dL
- GLC (3 h): 191.6 mg/dL
- IP (3 h): 8.8 mg/dL
- K (3 h): 3.8 meq/L
- LDH (3 h): 166.6 IU/L
- Na (3 h): 141 meq/L
- PL (3 h): 187.6 mg/dL
- RALB (3 h): 3.5 g/dL
- TBIL (3 h): 0.2 mg/dL
- TC (3 h): 88 mg/dL
- TG (3 h): 160.2 mg/dL
- TP (3 h): 5.6 g/dL
- gamma-GTP (3 h): 0.8 IU/L
- TERMINAL_BW (6 h): 212.5 g
- APTT (6 h): 19.8 s
- Bas (6 h): 0%
- Eos (6 h): 1%
- Fbg (6 h): 228.6 mg/dL
- Hb (6 h): 13.6 g/dL
- Ht (6 h): 42.2%
- Lym (6 h): 70.2%
- MCH (6 h): 20.1 pg
- MCHC (6 h): 32.2%
- MCV (6 h): 62.4 fL
- Mono (6 h): 3.4%
- Neu (6 h): 24.2%
- PT (6 h): 12.5 s
- Plat (6 h): 122.5 x10_4/uL
- RBC (6 h): 676.8 x10_4/ul
- Ret (6 h): 7.8%
- WBC (6 h): 87.5 x10_2/uL
- KIDNEY_L (6 h): 1 g
- KIDNEY_R (6 h): 1 g
- KIDNEY_TOTAL (6 h): 2 g
- LIVER (6 h): 9.5 g
- A/G (6 h): 1.6
- ALP (6 h): 1140.4 IU/L
- ALT (6 h): 35 IU/L
- AST (6 h): 67.4 IU/L
- BUN (6 h): 8.8 mg/dL
- CRE (6 h): 0.4 mg/dL
- Ca (6 h): 10.9 mg/dL
- Cl (6 h): 103 meq/L
- DBIL (6 h): 0.092 mg/dL
- GLC (6 h): 207.2 mg/dL
- IP (6 h): 9.8 mg/dL
- K (6 h): 3.6 meq/L
- LDH (6 h): 159.4 IU/L
- Na (6 h): 141.2 meq/L
- PL (6 h): 148.6 mg/dL
- RALB (6 h): 3.5 g/dL
- TBIL (6 h): 0.2 mg/dL
- TC (6 h): 77.2 mg/dL
- TG (6 h): 65.2 mg/dL
- TP (6 h): 5.6 g/dL
- gamma-GTP (6 h): 1 IU/L
- TERMINAL_BW (9 h): 213.3 g
- APTT (9 h): 19.1 s
- Bas (9 h): 0%
- Eos (9 h): 1%
- Fbg (9 h): 220 mg/dL
- Hb (9 h): 13 g/dL
- Ht (9 h): 39.7%
- Lym (9 h): 77%
- MCH (9 h): 20.8 pg
- MCHC (9 h): 32.7%
- MCV (9 h): 63.6 fL
- Mono (9 h): 2.2%
- Neu (9 h): 18.8%
- PT (9 h): 12.7 s
- Plat (9 h): 133.8 x10_4/uL
- RBC (9 h): 625.4 x10_4/ul
- Ret (9 h): 8.1%
- WBC (9 h): 102.8 x10_2/uL
- KIDNEY_L (9 h): 0.9 g
- KIDNEY_R (9 h): 0.9 g
- KIDNEY_TOTAL (9 h): 1.9 g
- LIVER (9 h): 8.8 g
- A/G (9 h): 1.7
- ALP (9 h): 1066.8 IU/L
- ALT (9 h): 30.8 IU/L
- AST (9 h): 61.6 IU/L
- BUN (9 h): 10.8 mg/dL
- CRE (9 h): 0.4 mg/dL
- Ca (9 h): 10.1 mg/dL
- Cl (9 h): 102.2 meq/L
- DBIL (9 h): 0.09 mg/dL
- GLC (9 h): 216.2 mg/dL
- IP (9 h): 11.1 mg/dL
- K (9 h): 3.5 meq/L
- LDH (9 h): 125.8 IU/L
- Na (9 h): 140.8 meq/L
- PL (9 h): 137.4 mg/dL
- RALB (9 h): 3.4 g/dL
- TBIL (9 h): 0.1 mg/dL
- TC (9 h): 72.8 mg/dL
- TG (9 h): 52.2 mg/dL
- TP (9 h): 5.4 g/dL
- gamma-GTP (9 h): 1.6 IU/L
- TERMINAL_BW (24 h): 226.7 g
- APTT (24 h): 18.3 s
- Bas (24 h): 0.4%
- Eos (24 h): 1%
- Fbg (24 h): 218.6 mg/dL
- Hb (24 h): 13.2 g/dL
- Ht (24 h): 38%
- Lym (24 h): 77%
- MCH (24 h): 21.7 pg
- MCHC (24 h): 34.7%
- MCV (24 h): 62.4 fL
- Mono (24 h): 2.4%
- Neu (24 h): 18.6%
- PT (24 h): 12.5 s
- Plat (24 h): 126.2 x10_4/uL
- RBC (24 h): 609.6 x10_4/ul
- Ret (24 h): 7.7%
- WBC (24 h): 105.9 x10_2/uL
- KIDNEY_L (24 h): 1 g
- KIDNEY_R (24 h): 1 g
- KIDNEY_TOTAL (24 h): 2 g
- LIVER (24 h): 10.9 g
- A/G (24 h): 1.5
- ALP (24 h): 1024.2 IU/L
- ALT (24 h): 32.2 IU/L
- AST (24 h): 61.4 IU/L
- BUN (24 h): 16.4 mg/dL
- CRE (24 h): 0.4 mg/dL
- Ca (24 h): 10.7 mg/dL
- Cl (24 h): 102.2 meq/L
- DBIL (24 h): 0.1 mg/dL
- GLC (24 h): 215.6 mg/dL
- IP (24 h): 7.5 mg/dL
- K (24 h): 3.7 meq/L
- LDH (24 h): 189.6 IU/L
- Na (24 h): 141.2 meq/L
- PL (24 h): 146.2 mg/dL
- RALB (24 h): 3.3 g/dL
- TBIL (24 h): 0.2 mg/dL
- TC (24 h): 73.2 mg/dL
- TG (24 h): 97.8 mg/dL
- TP (24 h): 5.4 g/dL
- gamma-GTP (24 h): 1.4 IU/L
